Activity data for eight compounds are collected here from ChEMBL document CHEMBL1145654, “Phototoxic and Insecticidal Activities of Chromenes and Benzofurans from Encelia” (J Nat Prod, 1983).

Common to all, as to type: functional, organism-based
One assay has as its system Saccharomyces cerevisiae. Nature of the assay: Phototoxicity in 2 hrs UV irradiated Saccharomyces cerevisiae measured after 24 hrs.
In a further assay the test system is Candida albicans. Nature of the assay: Phototoxicity in 2 hrs UV irradiated Candida albicans measured after 24 hrs.
Another assay relates to Escherichia coli. The assay can be described thus: Phototoxicity in 2 hrs UV irradiated Escherichia coli measured after 24 hrs.
The subject of another assay is Pseudomonas fluorescens. The assay can be described thus: Phototoxicity in 2 hrs UV irradiated Pseudomonas fluorescens measured after 24 hrs.
The subject of a further assay is Bacillus subtilis. Nature of the assay: Phototoxicity in 2 hrs UV irradiated Bacillus subtilis measured after 24 hrs.
The next assay has as its system Staphylococcus. Nature of the assay: Phototoxicity in 2 hrs UV irradiated Staphylococcus albus measured after 24 hrs.
Assay [1] deals with Oncopeltus fasciatus. The assay can be described thus: Antijuvenile hormone activity in first instar Oncopeltus fasciatus larvae at 5 mg to 100 ug/petri dish.
The test system of assay [2] is Oncopeltus fasciatus. The assay can be described thus: Insecticidal activity in first instar Oncopeltus fasciatus larvae at 5 mg/petri dish.
Assay [3] has as its system Oncopeltus fasciatus. The assay can be described thus: Insecticidal activity in first instar Oncopeltus fasciatus larvae at 1.2 mg/petri dish after 3 to 4 days.

Activity calls are given as the source filed them. The rule behind the calls is not given here.

Regarding `COc1cc2c(cc1[C@](C)(O)CC(C)c1cc3cc(C(C)=O)c(O)cc3o1)C=CC(C)(C)O2` (stereo not given in full), the outcome with Saccharomyces cerevisiae, in the assay with Candida albicans, in the assay with Escherichia coli, with Pseudomonas fluorescens, with Bacillus subtilis and in the assay with Staphylococcus was inactive.
As to `C=C(C)c1cc2cc(C(C)=O)c(O)cc2o1`, the outcome in the assay on Saccharomyces cerevisiae, in the assay on Candida albicans, in the assay with Escherichia coli, with Pseudomonas fluorescens, in the assay on Bacillus subtilis and in the assay on Staphylococcus was inactive. Besides, the result in the assay with Oncopeltus fasciatus [1] was inactive.
For the compound `CC(=O)c1cc2c(cc1O)OC(C)(C)C=C2`, the outcome in the assay with Saccharomyces cerevisiae, in the assay with Candida albicans, with Bacillus subtilis and in the assay on Oncopeltus fasciatus [2] was Active. In addition, the outcome in the assay on Escherichia coli, in the assay on Pseudomonas fluorescens, in the assay on Staphylococcus and in the assay on Oncopeltus fasciatus [1] was inactive.
In the case of `COc1cc2c(cc1OC)OC(C)(C)C=C2`, the outcome with Saccharomyces cerevisiae, with Candida albicans, with Escherichia coli, in the assay with Pseudomonas fluorescens, in the assay with Bacillus subtilis and with Staphylococcus was inactive. Moreover, the result with Oncopeltus fasciatus [1] was inactive.
Turning to `COc1ccc2c(c1)OC(C)(C)C=C2`, the outcome with Saccharomyces cerevisiae, with Candida albicans, in the assay with Escherichia coli, in the assay on Pseudomonas fluorescens, with Bacillus subtilis and with Staphylococcus was inactive. For the same compound, the result in the assay with Oncopeltus fasciatus [1] was inactive.
For `C=C(C)c1cc2cc(C(C)=O)c(OC)cc2o1`, the result in the assay on Saccharomyces cerevisiae, in the assay with Candida albicans, in the assay on Pseudomonas fluorescens and in the assay with Bacillus subtilis was Active. For the same compound, the result in the assay on Escherichia coli and in the assay on Staphylococcus was inactive.
In the case of `COc1c2occc2cc2ccc(=O)oc12`, the outcome in the assay with Saccharomyces cerevisiae, with Candida albicans, with Escherichia coli, with Bacillus subtilis and in the assay on Staphylococcus was Active. Also, in the assay with Pseudomonas fluorescens, the outcome was inactive.
With `COc1cc2c(cc1C(C)=O)C=CC(C)(C)O2`, the outcome with Saccharomyces cerevisiae, with Candida albicans, in the assay on Bacillus subtilis and in the assay with Oncopeltus fasciatus [3] was Active. Also, the outcome in the assay on Escherichia coli, in the assay on Pseudomonas fluorescens, with Staphylococcus and in the assay with Oncopeltus fasciatus [1] was inactive.
